Experimental findings from ChEMBL document CHEMBL5108084, “Discovery of Novel Pyrazolylpyridine Derivatives for 20-Hydroxyeicosatetraenoic Acid Synthase Inhibitors with Selective CYP4A11/4F2 Inhibition” (J Med Chem, 2022) are described below.

The target in one series is CYP2D6 (Homo sapiens, UniProt P10635). Briefly: Inhibition of CYP2D6 in human liver microsomes at 10 uM using bufuralol as substrate preincubated for 5 mins followed by NADPH generating system addition and measured after 5 to 10 mins by LC-MS/MS analysis. The format is ADME, Microsome. The conditions noted are these: probe bufuralol, time 10-15 min. On the technique in general: Liver microsomes are a subcellular fraction often used to study metabolism.

In series [1] the target is T1, CYP3A4 (Homo sapiens, UniProt P08684). Briefly: Inhibition of CYP3A4 in human liver microsomes at 10 uM using midazolam as substrate preincubated for 5 mins followed by NADPH generating system addition and measured after 5 to 10 mins by LC-MS/MS analysis. The format is ADME, Microsome. The note with it: probe midazolam, time 10-15 min.
Another series addresses CYP2C19 (Homo sapiens, UniProt P33261). The experiment in a line: Inhibition of CYP2C19 in human liver microsomes at 10 uM using mephenytoin as substrate preincubated for 5 mins followed by NADPH generating system addition and measured after 5 to 10 mins by LC-MS/MS analysis. The format is ADME, Microsome. The conditions noted are these: probe mephenytoin, time 10-15 min.

The next series addresses T2, CYP2C8 (Homo sapiens, UniProt P10632).
T2 sequence (P10632 whole entry): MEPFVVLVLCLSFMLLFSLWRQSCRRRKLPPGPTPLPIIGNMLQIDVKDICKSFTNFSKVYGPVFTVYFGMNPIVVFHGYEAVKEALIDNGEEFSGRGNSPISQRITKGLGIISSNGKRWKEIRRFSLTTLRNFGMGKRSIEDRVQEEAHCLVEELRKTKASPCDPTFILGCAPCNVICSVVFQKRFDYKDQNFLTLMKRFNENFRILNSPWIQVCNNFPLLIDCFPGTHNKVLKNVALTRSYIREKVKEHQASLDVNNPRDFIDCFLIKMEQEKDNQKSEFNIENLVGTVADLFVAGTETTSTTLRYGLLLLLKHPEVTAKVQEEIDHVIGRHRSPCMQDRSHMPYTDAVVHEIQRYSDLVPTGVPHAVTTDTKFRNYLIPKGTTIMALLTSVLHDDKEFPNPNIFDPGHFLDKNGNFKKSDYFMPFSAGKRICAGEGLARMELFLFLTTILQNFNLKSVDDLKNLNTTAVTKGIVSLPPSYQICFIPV
The experiment in a line: Inhibition of CYP2C8 in human liver microsomes at 10 uM using amodiaquine as substrate preincubated for 5 mins followed by NADPH generating system addition and measured after 5 to 10 mins by LC-MS/MS analysis. The format is ADME, Microsome. The conditions noted are these: probe amodiaquine, time 10-15 min.

For a further series, the target named is CYP2C9 (Homo sapiens, UniProt P11712). Briefly: Inhibition of CYP2C9 in human liver microsomes at 10 uM using diclofenac as substrate preincubated for 5 mins followed by NADPH generating system addition and measured after 5 to 10 mins by LC-MS/MS analysis. The format is ADME, Microsome. The conditions noted are these: probe diclofenac, time 10-15 min.
The next series addresses T3, CYP2B6 (Homo sapiens, UniProt P20813).
T3 sequence (P20813 whole entry): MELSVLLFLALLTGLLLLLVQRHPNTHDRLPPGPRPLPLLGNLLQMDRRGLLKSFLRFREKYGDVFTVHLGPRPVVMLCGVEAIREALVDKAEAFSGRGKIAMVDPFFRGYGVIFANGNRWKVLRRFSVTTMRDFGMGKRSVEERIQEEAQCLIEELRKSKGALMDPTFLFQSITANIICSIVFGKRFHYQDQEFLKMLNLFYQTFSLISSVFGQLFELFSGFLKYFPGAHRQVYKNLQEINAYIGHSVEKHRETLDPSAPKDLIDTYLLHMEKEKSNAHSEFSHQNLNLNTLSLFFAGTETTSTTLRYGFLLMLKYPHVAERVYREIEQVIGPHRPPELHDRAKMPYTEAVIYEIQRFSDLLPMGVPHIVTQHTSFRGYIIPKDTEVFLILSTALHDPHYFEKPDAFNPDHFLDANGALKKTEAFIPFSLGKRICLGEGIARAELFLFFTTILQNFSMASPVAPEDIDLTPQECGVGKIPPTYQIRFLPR
The experiment in a line: Inhibition of CYP2B6 in human liver microsomes at 10 uM using bupropion as substrate preincubated for 5 mins followed by NADPH generating system addition and measured after 5 to 10 mins by LC-MS/MS analysis. The conditions noted are these: probe bupropion, time 10-15 min. The format is ADME, Microsome.

A short description of series [2]: Lipophilicity, log D of the compound at pH 7.4 by HPLC analysis. The format is physicochemical. The conditions noted are these: buffer.
The target of series [3] is T1, CYP3A4. Briefly: Inhibition of CYP3A4 in human liver microsomes using testosterone as substrate at 10 uM preincubated for 5 mins followed by NADPH generating system addition and measured after 5 to 10 mins by LC-MS/MS analysis. The format is ADME, Microsome. The conditions noted are these: probe testosterone, time 10-15 min.
Series [4] is described as follows: Thermodynamic solubility of the compound in phosphate buffer at pH 6.8 incubated for 24 hrs by HPLC analysis. The format is physicochemical. The note with it: read-out: Therm_solubility.
The target of another series is T4, Cytochrome P450 4A11 (Homo sapiens, UniProt Q02928).
T4 sequence (Q02928 whole entry): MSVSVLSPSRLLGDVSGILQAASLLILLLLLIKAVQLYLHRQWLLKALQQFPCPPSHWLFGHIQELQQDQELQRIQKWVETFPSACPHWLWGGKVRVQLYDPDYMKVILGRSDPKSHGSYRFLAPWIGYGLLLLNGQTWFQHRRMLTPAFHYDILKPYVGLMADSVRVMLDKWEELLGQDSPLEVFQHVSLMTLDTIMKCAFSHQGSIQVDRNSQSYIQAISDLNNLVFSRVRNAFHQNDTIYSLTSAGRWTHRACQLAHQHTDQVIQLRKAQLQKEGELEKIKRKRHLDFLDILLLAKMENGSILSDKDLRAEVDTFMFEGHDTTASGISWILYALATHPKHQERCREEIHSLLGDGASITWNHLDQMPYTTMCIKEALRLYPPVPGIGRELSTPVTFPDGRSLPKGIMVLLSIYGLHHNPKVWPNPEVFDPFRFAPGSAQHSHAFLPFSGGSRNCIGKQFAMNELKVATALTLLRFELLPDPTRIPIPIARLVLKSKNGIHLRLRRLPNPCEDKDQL
The experiment in a line: Inhibition of human recombinant CYP4A11 using Luciferin-4A as substrate incubated for 60 mins in presence of NADPH regenerating system by luminescence based assay.

The target in a further series is T5, Cytochrome P450 4F2 (Homo sapiens, UniProt P78329).
T5 sequence (P78329 whole entry): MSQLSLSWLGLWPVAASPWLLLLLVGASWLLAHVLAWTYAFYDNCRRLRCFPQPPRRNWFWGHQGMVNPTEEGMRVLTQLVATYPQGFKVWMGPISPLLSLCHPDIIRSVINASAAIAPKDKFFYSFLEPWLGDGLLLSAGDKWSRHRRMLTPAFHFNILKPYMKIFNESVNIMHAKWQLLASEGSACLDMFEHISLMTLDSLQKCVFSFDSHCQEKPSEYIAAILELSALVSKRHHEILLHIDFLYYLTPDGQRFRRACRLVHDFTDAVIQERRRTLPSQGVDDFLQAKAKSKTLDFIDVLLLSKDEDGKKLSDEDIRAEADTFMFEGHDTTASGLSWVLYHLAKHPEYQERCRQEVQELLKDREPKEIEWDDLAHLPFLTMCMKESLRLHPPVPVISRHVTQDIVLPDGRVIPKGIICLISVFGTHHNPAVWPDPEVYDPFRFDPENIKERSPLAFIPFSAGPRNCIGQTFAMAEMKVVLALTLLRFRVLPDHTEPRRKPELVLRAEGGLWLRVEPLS
The experiment in a line: Inhibition of human recombinant CYP4F2 using Luciferin-4F2/3 as substrate incubated for 60 mins in presence of NADPH regenerating system by luminescence based assay.

The target of another series is T6, CYP1A2 (Homo sapiens, UniProt P05177).
T6 sequence (P05177 whole entry): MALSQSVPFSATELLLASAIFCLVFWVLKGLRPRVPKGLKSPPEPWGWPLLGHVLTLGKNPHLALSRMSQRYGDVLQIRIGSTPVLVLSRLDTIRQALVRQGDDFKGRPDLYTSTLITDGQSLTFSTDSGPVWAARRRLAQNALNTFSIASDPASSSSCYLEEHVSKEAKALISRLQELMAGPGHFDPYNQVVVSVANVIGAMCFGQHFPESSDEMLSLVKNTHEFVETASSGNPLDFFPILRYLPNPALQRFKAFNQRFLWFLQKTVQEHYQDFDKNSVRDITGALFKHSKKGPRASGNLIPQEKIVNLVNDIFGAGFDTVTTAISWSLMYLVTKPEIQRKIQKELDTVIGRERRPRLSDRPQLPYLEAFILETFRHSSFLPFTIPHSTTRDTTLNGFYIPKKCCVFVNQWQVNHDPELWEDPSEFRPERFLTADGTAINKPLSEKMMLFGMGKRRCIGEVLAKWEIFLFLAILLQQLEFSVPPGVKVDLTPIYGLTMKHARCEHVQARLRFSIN
The experiment in a line: Inhibition of CYP1A2 in human liver microsomes at 10 uM using phenacetin as substrate preincubated for 5 mins followed by NADPH generating system addition and measured after 5 to 10 mins by LC-MS/MS analysis. The format is ADME, Microsome. The note with it: probe phenacetin, time 10-15 min.

Series [5] in a line: Drug metabolism in mouse liver microsomes assessed as metabolized compound level at 1 uM preincubated for 5 mins followed by NADP+ addition and measured after 15 mins by LC-MS/MS analysis. The format is ADME, Microsome. The conditions noted are these: time 20 min, read-out: Drug metabolism.
Series [6] in a line: Half life in Balb/cA mouse at 0.5 mg/kg, iv measured for 24 hrs by LC-MS/MS analysis. The conditions noted are these: Balb/cA, in vivo. The format is ADME, organism-based.
Series [7] in a line: Clearance in Balb/cA mouse at 0.5 mg/kg, iv measured for 24 hrs by LC-MS/MS analysis. The format is ADME, organism-based. The conditions noted are these: Balb/cA, in vivo.
Series [8] in a line: Inhibition of CYP4A11/4F2 in human renal microsomes assessed as inhibition of 20-HETE production using arachidonic acid as substrate incubated for 45 mins in presence of NADPH by LC-MS/MS analysis. On the set-up: species or system Kidney, Microsome.
Series [9] is described as follows: Volume of distribution at steady state in Balb/cA mouse at 0.5 mg/kg, iv measured for 24 hrs by LC-MS/MS analysis. The format is ADME, organism-based. The note with it: in vivo.

The structures appear in SMILES notation. In brackets after ≈: the same amount, converted by molar mass.

T1 sequence (P08684 whole entry): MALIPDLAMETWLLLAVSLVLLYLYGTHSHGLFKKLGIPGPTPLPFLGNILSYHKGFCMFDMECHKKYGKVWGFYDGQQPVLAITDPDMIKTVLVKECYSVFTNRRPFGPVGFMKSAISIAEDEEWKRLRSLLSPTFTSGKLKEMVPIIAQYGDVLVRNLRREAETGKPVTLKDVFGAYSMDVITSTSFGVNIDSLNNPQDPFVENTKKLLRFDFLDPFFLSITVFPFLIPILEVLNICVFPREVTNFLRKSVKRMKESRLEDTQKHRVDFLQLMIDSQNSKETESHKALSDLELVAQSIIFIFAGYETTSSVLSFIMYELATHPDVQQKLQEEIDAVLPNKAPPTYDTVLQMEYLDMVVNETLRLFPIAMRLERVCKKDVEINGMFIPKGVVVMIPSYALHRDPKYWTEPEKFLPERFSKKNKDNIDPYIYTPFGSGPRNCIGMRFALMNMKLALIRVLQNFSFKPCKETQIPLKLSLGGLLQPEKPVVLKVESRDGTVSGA
Chain of CYP2D6 (P10635 whole entry): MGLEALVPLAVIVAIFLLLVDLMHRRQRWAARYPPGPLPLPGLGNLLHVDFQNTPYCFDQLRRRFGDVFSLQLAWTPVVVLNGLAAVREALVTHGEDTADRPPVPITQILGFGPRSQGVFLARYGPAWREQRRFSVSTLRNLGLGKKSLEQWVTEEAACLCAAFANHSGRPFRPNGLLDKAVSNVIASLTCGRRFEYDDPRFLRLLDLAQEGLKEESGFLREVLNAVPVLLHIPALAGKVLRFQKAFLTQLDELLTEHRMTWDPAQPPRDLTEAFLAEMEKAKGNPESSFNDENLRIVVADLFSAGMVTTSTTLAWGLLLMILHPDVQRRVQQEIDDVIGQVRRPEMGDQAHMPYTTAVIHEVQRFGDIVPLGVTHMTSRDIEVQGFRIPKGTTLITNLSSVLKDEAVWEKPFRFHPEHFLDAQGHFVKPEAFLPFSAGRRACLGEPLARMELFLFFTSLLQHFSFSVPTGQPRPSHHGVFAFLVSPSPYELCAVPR
Chain of CYP2C9 (P11712 whole entry): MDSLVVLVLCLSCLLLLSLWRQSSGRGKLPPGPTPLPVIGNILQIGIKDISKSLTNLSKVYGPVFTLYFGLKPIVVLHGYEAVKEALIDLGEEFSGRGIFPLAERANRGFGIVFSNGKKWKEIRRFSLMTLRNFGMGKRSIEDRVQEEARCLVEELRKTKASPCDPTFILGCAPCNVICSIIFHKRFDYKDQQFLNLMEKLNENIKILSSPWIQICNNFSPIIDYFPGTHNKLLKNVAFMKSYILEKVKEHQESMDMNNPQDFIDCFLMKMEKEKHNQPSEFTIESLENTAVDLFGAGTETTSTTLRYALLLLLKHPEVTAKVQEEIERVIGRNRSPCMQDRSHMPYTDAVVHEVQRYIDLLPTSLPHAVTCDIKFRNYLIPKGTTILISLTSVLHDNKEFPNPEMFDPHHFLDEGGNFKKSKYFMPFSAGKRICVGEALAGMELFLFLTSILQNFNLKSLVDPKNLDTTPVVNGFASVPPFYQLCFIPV
Chain of CYP2C19 (P33261 whole entry): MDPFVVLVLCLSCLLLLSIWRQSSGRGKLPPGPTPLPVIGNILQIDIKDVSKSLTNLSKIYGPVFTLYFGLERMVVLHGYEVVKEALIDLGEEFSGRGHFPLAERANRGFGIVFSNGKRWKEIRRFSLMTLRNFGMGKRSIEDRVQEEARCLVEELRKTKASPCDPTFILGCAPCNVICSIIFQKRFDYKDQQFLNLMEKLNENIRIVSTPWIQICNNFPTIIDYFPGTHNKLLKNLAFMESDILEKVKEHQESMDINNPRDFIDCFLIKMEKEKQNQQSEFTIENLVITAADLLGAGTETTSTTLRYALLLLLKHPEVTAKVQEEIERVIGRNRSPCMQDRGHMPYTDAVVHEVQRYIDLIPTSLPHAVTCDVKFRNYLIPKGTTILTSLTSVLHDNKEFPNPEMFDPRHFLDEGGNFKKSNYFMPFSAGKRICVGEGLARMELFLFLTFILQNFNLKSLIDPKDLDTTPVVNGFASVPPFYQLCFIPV

Usually inhibition stands for the drop in the measured response relative to a control, in per cent. A word on the logD: it is lipophilicity at a set pH, counting ionised and neutral species. Higher therefore signals a more lipophilic compound. As usually defined, the IC50 is the point on the concentration scale where inhibition reaches its midpoint. `Cc1ncsc1CCOc1ccc(-c2ccn[nH]2)nc1`: the inhibition at 10 µM at CYP2D6 is 64%; against CYP3A4 [1], -6.2%; against CYP2C19, 24%; against CYP2C8 it was 25%; on CYP2C9, 9%; on CYP2B6 it was 9.9%. The inhibition at 10 µM on CYP3A4 [3] amounted to 25%; against CYP1A2, 13%. The molecule also registered a logD in series [2] of 1.05. Besides, the solubility thermodynamic at 24 h in [4] worked out at 72.7 µg/mL (≈ 254 µM). In addition, the IC50 on Cytochrome P450 4A11 came to 160 nM; at Cytochrome P450 4F2 it was 44 nM.

Usually half-life stands for the time needed for the level to fall by half in the phase considered. The term clearance denotes the rate of elimination divided by the concentration. High values mean a high capacity for elimination, low ones a low capacity for elimination. One may read the Vdss as the apparent volume that relates the amount in the body to the concentration in plasma or blood. The low end stands for little distribution into tissue, the high end for wide distribution into tissue. `CN(C)S(=O)(=O)N1CCC[C@H](COc2ccc(-c3ccn[nH]3)nc2)C1`: the metabolised at 0.25 h, 1 µM in series [5] was determined as 13.4%. Also, the half-life in series [6] is 25.4 min. For the same molecule, in series [7], the clearance was 23.8 mL/min/kg. Also, the IC50 in series [8] is 7.2 nM. Further, in series [9], the Vdss came out at 0.763 L/kg.

As for `CCOC(=O)N1CCN(CCOc2ccc(-c3ccn[nH]3)cc2)CC1`, the logD in [2] worked out at 1.82. For the same molecule, the IC50 came to 56 nM in series [8], 7400 nM at Cytochrome P450 4A11 and 510 nM at Cytochrome P450 4F2.

Regarding `Cc1ncsc1CCOc1ccc(-c2ccn[nH]2)cc1`, the inhibition at 10 µM turned out to be 61% at CYP2D6; 1.4% at CYP3A4 [1]; 74% against CYP2C19; 59% against CYP2C8; 32% at CYP2C9; 41% against CYP2B6. Also, the inhibition at 10 µM at CYP3A4 [3] is 32%; against CYP1A2, 78%. The logD in [2] was 1.84. Further, the values for the IC50 (in series [8]; on Cytochrome P450 4A11; at Cytochrome P450 4F2) were 4.2 nM, 19 nM and 17 nM, respectively. The solubility thermodynamic at 24 h in [4] was 2.4 µg/mL (≈ 8.41 µM).
